The test system of test [1] is BALB/c mice. Briefly: Immunity experiment: thymus weight/body weight ratio. The settings on record: male BALB/c mice, gavage daily, three months; Example 1 0.50, selenium-enriched yeast 0.05, yeast beta-glucan 0.15, Vitamin C 0.20, Vitamin E 0.10 g/kg·bw. The format is in vivo. As to the method: (§1) 60 male BALB/c mice of clean grade with body weight 18-22 g were purchased from Shanghai Xipu'er-Bikai Experimental Animal Co., Ltd. (Add: […] Physiological saline was administered to the blank group. Three months later, a plurality of immune index of mice comprising thymus weight/body weight ratio, humoral immunity function (antibody index) and cellular immune function (NK cell activity) were measured. The measurement method was the same as the method for evaluating health food.

Test [2] deals with spleen cells. The test is described as follows: Immunity experiment: antibody cell detection (plaque forming cells), humoral immunity function. Type of test: in vivo. As to conditions: male BALB/c mice, gavage daily, three months; Example 1 0.50, selenium-enriched yeast 0.05, yeast beta-glucan 0.15, Vitamin C 0.20, Vitamin E 0.10 g/kg·bw. As to the method: as §1
Test [3] relates to NK cell. The test is described as follows: Immunity experiment: NK cell activity, cellular immune function. Type of test: in vivo. As to conditions: male BALB/c mice, gavage daily, three months; Example 1 0.50, selenium-enriched yeast 0.05, yeast beta-glucan 0.15, Vitamin C 0.20, Vitamin E 0.10 g/kg·bw. As to the method:
as §1

Test [4] concerns lipid peroxide (malondialdehyde (MDA)). Briefly: Anti-oxidation experiment: content of lipid peroxide (MDA). Type of test: in vivo, human. As to the method:
(§2) During the experiment, all the volunteers kept original living and dietary habits. […] Subsequently, the content of lipid peroxide (malondialdehyde (MDA)), superoxide dismutase (SOD) activity and glutathione peroxidase (GSH-PX) activity of the volunteers were measured. The measurement method was the same as the method for evaluating health food.

For test [5], the system named is superoxide dismutase (SOD). Briefly: Anti-oxidation experiment: SOD activity. Type of test: in vivo, human. As to the method: as §2
Test [6] relates to glutathione peroxidase (GSH-PX). Briefly: Anti-oxidation experiment: GSH-Px activity. The format is in vivo, human. Here is the method:
as §2

Setting [7] is: volunteers 45-65 years, before administration (baseline).
Where [8] appears, read: volunteers, after administration two times a day for three months, Example 2 500 mg, selenium-enriched yeast 150 mg, yeast beta-glucan 450 mg, Vitamin C 2.5 mg, Vitamin E 2.5 mg each time.

As for `O=C1O[C@H]([C@@H](O)CO)C(O)=C1O` [Vitamin C], the “Thymus weight/body weight ratio” value in test [1] amounted to 1.80 ± 0.57 mg/g. The “Antibody cell detection Quantity of plaque forming cells” value in test [2] was 87 ± 41 /106 spleen cells. In test [3], this compound showed an NK cell activity of 18.18 ± 4.14%. The MDA content was found to be 5.77 ± 0.65 nmol/mL in test [4] (setting [7]) and 5.75 ± 0.60 nmol/mL in test [4] (setting [8]). Besides, the SOD activity was 13335.1 ± 1466.6 U/gHb in test [5] (setting [7]) and 13345.5 ± 1472.7 U/gHb in test [5] (setting [8]). For the same compound, the results for the GSH-Px activity in test [6] (setting [7]) and in test [6] (setting [8]) were 121.6 ± 15.67 U/mL and 123.7 ± 15.33 U/mL, respectively.
Turning to Vitamin E, the “Thymus weight/body weight ratio” value in test [1] amounted to 1.90 ± 0.33 mg/g. Also, the “Antibody cell detection Quantity of plaque forming cells” value in test [2] was 96 ± 21 /106 spleen cells. Further, the NK cell activity in test [3] was found to be 18.02 ± 5.31%. Further, the MDA content stood at 5.74 ± 0.55 nmol/mL in test [4] (setting [7]) and 5.72 ± 0.65 nmol/mL in test [4] (setting [8]). The SOD activity in test [5] (setting [7]) was determined as 13297.0 ± 2193.7 U/gHb; in test [5] (setting [8]) it was 13375.6 ± 2014.7 U/gHb. Besides, the GSH-Px activity in test [6] (setting [7]) came to 120.8 ± 13.12 U/mL; in test [6] (setting [8]) it was 121.9 ± 9.78 U/mL.

The values above are taken from US8883137B2, “Compositions comprising selenium-rich yeast and yeast beta-glucan” (Angel Yeast Co., Ltd., priority 2008, dated 2014).
